Measured values as given in patent US6545007B2, “Methods for inhibiting the transmission of HIV using topically applied substituted 6-benzyl-4-oxopyrimidines” (Idenix (Cayman) Limited, priority 2000, dated 2003).
Read-outs that look alike come from different tables or passages of the source.

Columns and labels:
HIV-1 (IIIB strain) = format: cell-based; settings: for EC50: anti-HIV-1 activity; for SI: selectivity index (CC50/EC50)
Procedure: Compounds. Compounds were solubilized in DMSO at 200 mM and then diluted into culture medium.
(§1) Cells and viruses. MT-4, C8166,H9/IIIB and CEM cells were grown at 37° C. in a 5% CO2 atmosphere in RPMI 1640 medium, supplemented with 10% fetal calf serum (FCS), 100 IU/mL penicillin and 100 μg/mL streptomycin. Cell cultures were checked periodically for the absence of mycoplasma contamination with a MycoTect Kit (Gibco). Human immunodeficiency virus type-I (HIV-1, IIIB strain) was obtained from supernatants of persistently infected H9/IIIB cells.
HIV Titration. Titration of HIV was performed in C8166 cells by the standard limiting dilution method (dilution 1:2, four replica wells per dilution) in 96-well plates. The infectious virus titre was determined by light microscope scoring of cytopathicity after 4 days of incubation and the virus titres were expressed as CCID50/mL.
(§2) Anti-HIV Assays. Activity of the compounds against HIV-1 and HIV-2 multiplication in acutely infected cells was based on the inhibition of virus-induced cytopathicity in MT-4 and C8166 cells, respectively. Briefly, 50 μL of culture medium containing 1×10^4 cells were added to each well of flat-bottom microtiter trays containing 50 μl of culture medium with or without various concentrations of the test compounds. Then 20 μL of an HIV suspension containing 100 CCID50 were added. After a 4-day incubation at 37° C., the number of viable cells was determined by the 3-(4,5-dimethylthiazol-[…])-2,5-diphenyltetrazolium bromide (MTT) method. Cytotoxicity of the compounds was evaluated in parallel with their antiviral activity. It was based on the viability of mock-infected cells, as monitored by the MTT method.

mock-infected MT-4 cells = experiment: Cytotoxicity: viability of mock-infected cells by the MTT method; format: cell-based, human
Procedure: as §1, §2

[1] = acutely infected MT-4 cells, MTT

| EC50 (HIV-1 (IIIB strain); HIV-1-infected MT-4 cells) [µM] | EC50 (HIV-1 (IIIB strain); [1]) [µM] | Compound | SI (HIV-1 (IIIB strain)) | CC50 (mock-infected MT-4 cells) [µM] | CC50 (mock-infected MT-4 cells; MTT) [µM] |
| --- | --- | --- | --- | --- | --- |
| 0.05 |  | CC(C)Sc1nc(C(C)c2c(F)cccc2F)cc(=O)[nH]1 (stereo not drawn) [MC 1007] | 3,340 | 167 |  |
| 0.2 |  | CCc1c(Cc2c(F)cccc2F)nc(SC(C)C)[nH]c1=O [MC 1037] | 326 | 65 |  |
| 3.17 |  | O=c1cc(Cc2c(F)cccc2F)nc(NC2CC2)[nH]1 [MC 980] | >63 | > 200 |  |
| 0.4 |  | O=c1cc(Cc2c(Cl)cccc2Cl)nc(SC2CCCC2)[nH]1 [MC 888] | >500 | > 200 |  |
| 1.7 |  | CCC(C)Sc1nc(Cc2ccccc2C)c(C)c(=O)[nH]1 (stereo not drawn) [MC 844] | >118 | > 200 |  |
|  | 3.8 | CCCN(CCC)c1nc(Cc2c(F)cccc2F)cc(=O)[nH]1 [MC 1204] |  |  | > 200 |
| 3 |  | C=CCc1c(Cc2ccccc2)nc(SC(C)CC)[nH]c1=O (stereo not drawn) [MC 852] | >67 | > 200 |  |
| 23 |  | CCC(C)Sc1nc(Cc2ccc(N)cc2)cc(=O)[nH]1 (stereo not drawn) [MC 960] | >8 | > 200 |  |
| 0.14 |  | CCC(C)Sc1nc(Cc2c(Cl)cccc2Cl)cc(=O)[nH]1 (stereo not drawn) [MC 815] | >1,428 | > 200 |  |
| 0.5 |  | CC(c1cc(=O)[nH]c(SC2CCCC2)n1)c1cccc2ccccc12 (stereo not drawn) [MC 972] | 186 | 93 |  |
| 0.07 |  | CCC(C)Nc1nc(Cc2c(F)cccc2F)c(C)c(=O)[nH]1 (stereo not drawn) [MC 1130] | 2,857 | 200 |  |
| 0.14 |  | CC(C)CSc1nc(Cc2c(F)cccc2F)cc(=O)[nH]1 [MC 866] | 1,300 | 182 |  |
| 0.6 |  | CC(c1ccccc1)c1cc(=O)[nH]c(SC2CCCC2)n1 (stereo not drawn) [MC 892] | 333 | 159 |  |
| 0.4 |  | CCC(C)Sc1nc(Cc2cccc([N+](=O)[O-])c2)cc(=O)[nH]1 (stereo not drawn) [MC 897] | 392 | 157 |  |
| 0.08 |  | O=c1cc(Cc2c(F)cccc2F)nc(SC2CCCC2)[nH]1 [MC 867] | >2,500 | > 200 |  |
| 1.3 |  | Cc1c(Cc2c(Cl)cccc2Cl)nc(SC(C)C)[nH]c1=O [MC 914] | >154 | > 200 |  |
|  | 0.01 | Cc1c(C(C)c2c(F)cccc2F)nc(SCC(C)C)[nH]c1=O (stereo not drawn) [MC 1153] |  |  | > 200 |
| 0.08 |  | O=c1cc(Cc2c(F)cccc2F)nc(SC2CCCCC2)[nH]1 [MC 870] | 2,500 | 200 |  |
| 0.18 |  | CCCCSc1nc(Cc2c(F)cccc2F)cc(=O)[nH]1 [MC 872] | 900 | 162 |  |
| 0.38 |  | CC(C)Nc1nc(Cc2c(F)cccc2F)cc(=O)[nH]1 [MC 979] | >526 | > 200 |  |
| 32 |  | CCC(C)Sc1nc(Cc2ccccc2C(F)(F)F)cc(=O)[nH]1 (stereo not drawn) [MC 868] | 6.2 | > 200 |  |
| 0.07 |  | CCCCSc1nc(C(C)c2c(F)cccc2F)cc(=O)[nH]1 (stereo not drawn) [MC 1045] | 2,857 | > 200 |  |
| 0.26 |  | CCC(C)Sc1nc(Cc2ccccc2F)cc(=O)[nH]1 (stereo not drawn) [MC 880] | 769 | 200 |  |
| 0.8 |  | CCNc1nc(Cc2c(F)cccc2F)cc(=O)[nH]1 [MC 1119] | >250 | > 200 |  |
| 0.11 |  | CCCNc1nc(Cc2c(F)cccc2F)cc(=O)[nH]1 [MC 1078] | 1,818 | 200 |  |
| 1.1 |  | CC(C)Sc1nc(C(C)c2cccc3ccccc23)cc(=O)[nH]1 (stereo not drawn) [MC 971] | 108 | 119 |  |
|  | 0.03 | CCCCNc1nc(C(C)c2c(F)cccc2F)cc(=O)[nH]1 (stereo not drawn) [MC 1189] |  |  | 52 |
| 3.2 |  | CSc1nc(Cc2c(Cl)cccc2Cl)c(C)c(=O)[nH]1 [MC 912] | >62 | > 200 |  |
